# Columns and labels:
# NMDAR complexes = assay: Activity test on immobilized NMDAR complexes (immunoblotting and immunofluorescence detection); type: biochemical, rat; conditions: Five mM SOV, 30° C. for 1 hour, vs control
# Method: Experiments were performed on cortical tissue obtained from 3 week-old Sprague-Dawley rats. All procedures were conducted in strict adherence with the NIH Guide for the Care and Use of Laboratory Animals. Cortical tissue from 21 day-old rats was solubilized using a syringe in solubilization/immunoprecipitation buffer containing 0.1% Triton X-100, 0.2% β-mercaptoethanol, 50 mM Tris-HCl pH 7.5, 5 mM EDTA, 5 mM EGTA, 10 mg/ml of Sigma protease inhibitor cocktail, 1 mM phenylmethylsulfonyl fluoride. The tissue homogenate was centrifuged (15,000 g for 10 min at 4° C.) to remove insoluble material. The supernatantusprenat was kept at 4° C. and used later for immunoprecipitation. Protein A/G pre-coated 96-well plates (Pierce Biotechnology, Rockford, Ill.) were used for immunoprecipitation of active NMDA receptor complexes. The plates were washed with the solubilization/immunoprecipitation buffer and anti-NR1 antibody (20 μg) was added to each well in 100 μL of extraction buffer. Following a 2 hour incubation at room temperature, the wells were rinsed 3 times with solubilization/immunoprecipitation buffer and 100 μL of supernatant were added to each well. Following 4 hours incubation at 4° C., the wells were washed three times with a reaction buffer containing: 0.2% β-mercaptoethanol, 25 mM Tris-HCl pH 7.5, 30 mM MgCl2, 20 mM MnCl2, 0.5 mM DTT.
# Fifty μL of reaction buffer, 500 μM ATP, and the agents to be tested were added to each well. The control wells contained 50 μL of reaction buffer alone or in the presence 500 μM ATP. All samples were incubated at 30° C. for 1 hour. […]
# For fluorescence detection experiments, black 96-well plates were used to avoid fluorescence spill over. […] Multi-well plates were read on a Cytofluor 2350 fluorescence plate reader using the appropriate filters. […]
# GABAA receptor complexes = assay: Tyrosine phosphorylation in isolated GABAA receptor complexes (Western blotting); type: biochemical; conditions: Five mM SOV, 30° C. for 1 hour, hippocampus tissue, vs control
# Method: To test the effect of PTP inhibitor SOV on isolated GABA receptor complexes, hippocampus tissue was removed and homogenized with the solubilization/immunoprecipitation buffer described above. GABAA receptor complexes were immunoprecipitated using anti-β2/β3 antibody (Upstate Biotechnology, Lake Placid, N.Y., USA) as described in Example 1. The immobilized complexes were rinsed and solubilization/immunoprecipitation buffer was replaced with reaction buffer. This reaction buffer was added to all the wells. Control wells contained only the reaction buffer or reaction buffer and ATP alone. Five mM of SOV was added to the rest of the wells and incubated at 30° C. for 1 hour. The reaction was stopped with a blocking buffer and samples rinsed and subjected to Western blotting with anti-pTyr and anti-β2/β3 antibodies.
# [1] = tested on: α-7nACh receptor complexes; assay: Tyrosine phosphorylation in isolated α-7nACh receptor complexes (Western blotting); type: biochemical; conditions: Five mM SOV, 30° C. for 1 hour, hippocampus tissue, vs control
# Method: To test the effect of PTP inhibitor SOV on isolated a-7nACh receptor complexes, hippocampus tissue was dissected from the brain and homogenized with the solubilization/immunoprecipitation buffer described above, with some modifications. The solubilization buffer contained 0.05% TritonX-100 instead of 0.1% as used in Example 1. Immobilized complexes were rinsed and solubilization/immunoprecipitation buffer was replaced with reaction buffer. This reaction buffer was added to all the wells. Control wells contained only the reaction buffer or reaction buffer and ATP alone. Five mM SOV was added to rest of the wells and incubated at 30° C. for 1 hour. The reaction was stopped with a blocking buffer and samples rinsed and subjected to Western blotting with anti-pTyr, anti-α7 antibodies.
# [2] = tested on: HCN4 ion channel complexes; assay: Tyrosine phosphorylation in isolated HCN4 ion channel complexes; type: biochemical; conditions: Five mM SOV, 30° C. for 1 hour; rat ventricles; vs control
# Method: To test the effect of PTP inhibitor SOV, rat ventricles were dissected and homogenized in solubilization/immunoprecipitation buffer and subjected to co-immunoprecipitation by incubation with anti-HCN4 polyclonal antibody (Alpha Diagnostic International, San Antonio, Tex.), as described in Example 1. Immobilized complexes were rinsed and solubilization/immunoprecipitation buffer was replaced with reaction buffer. This reaction buffer was added to all the wells. Control wells contained only the reaction buffer or reaction buffer and ATP alone. Five mM SOV was added to rest of the wells and incubated at 30° C. for 1 hour. The reaction was stopped with blocking buffer and samples were rinsed and subjected to Western blotting or fluorescence analysis using anti-pTyr and anti-HCN4 antibodies.
# [3] = immunoblotting and immunofluorescence
structure (smiles),measurement,setting,value
"[Na+].[Na+].[Na+].[O]=[V]([O-])([O-])[O-] [SOV, sodium orthovanadate]",amount of NR2A/B in the receptor (ratio NR2A/B to NR1),NMDAR complexes; [3],decreased
same,tyrosine phosphorylation of NR2A/B subunits (ratio of pTyr to NR2A/B),NMDAR complexes; [3],increased
same,amount of PSD-95 in the receptor (ratio PSD-95 to NR1),NMDAR complexes,decreased
same,tyrosine phosphorylation of β2/β3 subunits (ratio of pTyr to β2/β3),GABAA receptor complexes,increased
same,tyrosine phosphorylation of α-7 subunits in the receptor (FIG. 5: ratio of pTyr to α-7),[1],increased
same,tyrosine phosphorylation of HCN4 subunits (ratio of pTyr to HCN4),[2],increased

# Reference: US8470745B2, “Methods and compositions for obtaining and using biologically active multi-protein complexes” (priority 2006, dated 2013)
